# Results: ChEMBL document CHEMBL4888484, “Replenishing the malaria drug discovery pipeline: Screening and hit evaluation of the MMV Hit Generation Library 1 (HGL1) against asexual blood stage Plasmodium falciparum ,using a nano luciferase reporter read-out” (2022)
# Experiments:
# Plasmodium falciparum [1] = assay: Hit confirmation in dose-response curve in Dd2 pLDH assay, at 72h; type: functional, organism-based; design: timepoint 72 hour; conditions: Dd2, Erythrocyte
# Plasmodium falciparum [2] = assay: Hit confirmation in dose-response curve in NF54 nanoGlo assay, at 72h; type: functional, organism-based, Erythrocyte; design: timepoint 72 hour; conditions: Plasmodium falciparum, NF54, Erythrocyte, 72 h
# Plasmodium falciparum [3] = assay: Hit confirmation in dose-response curve in NF54 nanoGlo assay, at 12h; type: functional, organism-based, Erythrocyte; design: timepoint 12 hour; conditions: Plasmodium falciparum, NF54, Erythrocyte, 12 h
# [4] = Hit confirmation in dose-response curve in HepG2 cytotoxicity assay, at 72h; type: toxicity, cell-based; design: timepoint 72 hour; conditions: human, HepG2 cells
# Plasmodium falciparum [5] = assay: Hit confirmation in dose-response curve in NF54 pLDH assay, at 72h; type: functional, organism-based; design: timepoint 72 hour; conditions: NF54, Erythrocyte
Structure (SMILES),IC50 (Plasmodium falciparum [1]) [µM],IC50 (Plasmodium falciparum [2]) [µM],IC50 (Plasmodium falciparum [3]) [µM],IC50 at 72 h [4] [µM],IC50 (Plasmodium falciparum [5]) [µM]
CCOc1ccc(Nc2c3ccccc3nc3ccccc23)cc1,1.86,1.55,5.75,> 10,3.47
CCOC(=O)CCn1cc(F)c(=O)[nH]c1=O,> 10,0.0269,> 10,> 10,0.0708
Cc1ccc(-c2c[n+](-c3ccc(OC(F)F)cc3)c3n2CCCCC3)cc1,1.2,0.891,> 10,> 10,1.66
CCc1ccc(/C=C/c2c[nH]c3ccccc23)[n+](CC)c1,0.372,0.263,> 10,> 10,0.513
Cc1cc(C)c2nc(C)cc(Nc3ccc(O)cc3)c2c1,1.26,1.23,7.41,> 10,1.66
c1ccc(C2=NN(c3ccc(-c4cc(-c5ccccc5)[n+](-c5ccccc5)c(-c5ccccc5)c4)cc3)[C@H](c3ccccc3)C2)cc1,0.955,0.631,2.19,4.07,1.32
O=C(N[C@@H]1CN(Cc2ccccn2)CCC[C@H]1O)c1ccc(OCc2ccccc2)cc1,2.29,2.45,> 10,> 10,4.07
C[C@H]1[C@@H]2[C@@H](O)C([C@H](C)C(=O)NC3CCCCC3)CC[C@@]2(C)CC[C@@H]1NC(=O)CC(C)(C)C (stereo not given in full),2.88,> 10,> 10,> 10,3.47
CC(=O)c1cccc(NC(=O)[C@@]23CCC(=O)N2c2ccccc2C(=O)N3C)c1,2.82,1.91,3.09,> 10,5.89
Cc1n(CC(=O)c2ccccc2)c2ccccc2[n+]1CC(=O)c1ccccc1,1.62,1.05,> 10,> 10,1.55
C[C@H]1CCC[C@@H](NCCc2ccccc2)CCC/C=C/c2cc(O)cc(O)c2C(=O)O1,2.29,0.759,8.51,> 10,2.95
COc1ccc(C2=CN(CC(=O)c3ccc(Cl)cc3)C3=CCCCCN23)cc1,3.16,2.95,> 10,> 10,2.95
CCN(CC)CCn1c2ccccc2n2cc(-c3ccc(Br)cc3)nc12,6.46,4.47,7.08,> 10,9.77
Cc1ccc(S(=O)(=O)Nc2c(S(=O)(=O)c3ccccc3)c3nc4ccccc4nc3n2CCc2ccccc2)cc1,5.13,2.14,3.63,> 10,6.76
CC1([C@@](O)(C#CC[N+]2(C)CCCCC2)c2ccccc2)CCCC1,1.26,2.19,> 10,> 10,1.41
Cc1ccc(S(=O)(=O)Nc2c(S(=O)(=O)c3ccc(C)cc3)c3nc4ccccc4nc3n2C[C@H]2CCCO2)cc1,> 10,2.57,1.35,> 10,> 10
COc1ccc(CC(=N)Nc2cc3cc(OC)c(OC)cc3c(Cc3ccc(OC)c(OC)c3)n2)cc1OC,2,2.24,5.01,> 10,3.72
CCCOc1ccc(Nc2cc(C)nc3ccc(Cl)cc23)cc1,3.24,2.88,> 10,> 10,7.08

Structure (SMILES),IC50 (Plasmodium falciparum [1]) [µM],IC50 (Plasmodium falciparum [2]) [µM],IC50 (Plasmodium falciparum [3]) [µM],IC50 at 72 h [4] [µM],IC50 (Plasmodium falciparum [5]) [µM]
N#Cc1c(-c2ccccc2)cc(-c2ccccc2)nc1S(=O)(=O)Cc1ccccc1,3.55,3.09,6.61,> 10,4.07
CC[n+]1c(/C=C/N(C)c2ccccc2)oc2ccc(-c3ccccc3)cc21,0.417,0.562,5.37,> 10,0.891
CCC(CC)c1cc([C@H]2CN3CC[C@H]2C[C@@H]3CNS(=O)(=O)Cc2ccccc2)nc(-c2ccncc2)n1,3.89,2.04,3.89,> 10,4.37
CCOC(=O)c1cn(CC)c2cc(NC3CCCCC3)c(F)cc2c1=O,0.891,0.724,> 10,> 10,2.29
Cc1ccc[n+](Cc2ccc3ccccc3n2)c1,2.88,3.02,> 10,> 10,3.24
c1ccc(CC2=NCCc3ccccc32)cc1,1.41,1.29,> 10,> 10,3.02
Cc1ccc(S(=O)(=O)Nc2c(S(=O)(=O)c3ccc(C)cc3)c3nc4ccccc4nc3n2CCC(C)C)cc1,4.27,2.51,4.79,> 10,8.32
CCC[N+]1(CC#C[C@@](O)(c2ccccc2)C2(C)CCCC2)CCCCC1,3.24,3.24,> 3.16,> 10,3.47
C=C1C(C)C2C(Cc3c[nH]c4ccccc34)NC(=O)C23C(=O)CC(O)C(O)CC(C)C/C=C/C3C1O (stereo not given),3.39,1.82,> 10,> 10,3.16
CCN1C(=O)c2ccccc2N2C(=O)CC[C@@]12C(=O)Nc1cccc(OC)c1,1.23,1,1.7,> 10,1.35
Oc1cc(OCc2ccccc2F)ccc1-c1[nH]ncc1-c1ccccc1,3.09,2.19,3.89,> 10,4.07
COc1c2c(cc3c1[C@@H](C#CCOc1ccccc1)[N+](C)(C)CC3)OCO2,1.91,1.66,> 10,> 10,3.31
CC(C)Nc1nc2nonc2n2cnnc12,3.55,1.95,4.47,> 10,4.37
Cc1ccc(S(=O)(=O)c2c(NS(=O)(=O)c3ccc(F)cc3)n(CCc3ccccc3)c3nc4ccccc4nc23)cc1,4.07,1.7,2.75,> 10,4.37
CCC[N+]1(CC#C[C@@](O)(c2ccccc2)C(C)(CC)CC)CCCCC1,4.27,3.39,> 10,> 10,4.37
COc1ccc(CNC(=O)c2ccc(N3C(=O)[C@@H]4Cc5c([nH]c6ccccc56)C(c5cccc(OC)c5)N4C3=O)cc2)cc1 (stereo not given in full),8.91,3.16,6.92,> 10,> 10
Cc1ccc(S(=O)(=O)c2c(NS(=O)(=O)c3ccccc3)n(CCc3ccccc3)c3nc4ccccc4nc23)cc1,3.02,1.45,1.91,> 10,3.8
CC(=O)Nc1ccc(-c2cn3c4ccccc4ccc3[n+]2C)cc1,1.41,0.49,> 10,> 10,0.263
